# Source: ChEMBL document CHEMBL1201862, “PubChem BioAssay data set” (2004)
# Activity calls are given as the source filed them. Rule as the data show it: actives have a measured IC50 and inactives only a lower limit.
# Target: Envelope glycoprotein gp160 (Human immunodeficiency virus 1, UniProt Q6QLK5)
# Assay: inhibitors of HIV fusion peptide binding, primary screen, biochemical, uHTS, fluorescence dequenching (AID 1986)
# Sequence of Envelope glycoprotein gp160 (Q6QLK5 whole entry, the tested form may be a part): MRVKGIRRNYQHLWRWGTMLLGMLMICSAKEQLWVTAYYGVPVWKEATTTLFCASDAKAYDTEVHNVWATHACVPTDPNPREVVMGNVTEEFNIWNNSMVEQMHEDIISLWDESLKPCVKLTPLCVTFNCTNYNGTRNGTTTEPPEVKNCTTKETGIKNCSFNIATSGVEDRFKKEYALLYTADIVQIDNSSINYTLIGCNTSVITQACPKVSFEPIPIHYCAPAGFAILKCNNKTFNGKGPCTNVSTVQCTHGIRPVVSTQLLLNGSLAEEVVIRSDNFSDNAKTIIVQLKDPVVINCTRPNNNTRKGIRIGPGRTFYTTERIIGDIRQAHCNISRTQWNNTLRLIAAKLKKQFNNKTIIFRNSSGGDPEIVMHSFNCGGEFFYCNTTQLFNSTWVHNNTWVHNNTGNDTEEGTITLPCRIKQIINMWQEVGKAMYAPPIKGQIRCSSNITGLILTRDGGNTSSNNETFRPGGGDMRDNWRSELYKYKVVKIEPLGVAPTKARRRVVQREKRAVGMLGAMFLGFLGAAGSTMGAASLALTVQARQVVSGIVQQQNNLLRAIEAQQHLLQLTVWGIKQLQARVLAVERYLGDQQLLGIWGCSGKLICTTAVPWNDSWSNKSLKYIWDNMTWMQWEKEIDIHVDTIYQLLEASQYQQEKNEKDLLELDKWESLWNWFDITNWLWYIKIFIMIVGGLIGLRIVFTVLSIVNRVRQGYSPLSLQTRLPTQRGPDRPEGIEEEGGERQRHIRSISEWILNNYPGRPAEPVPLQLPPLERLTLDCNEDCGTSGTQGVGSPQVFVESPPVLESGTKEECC
row,Compound,IC50
1,COc1cc([N+](=O)[O-])cc(/C=C2/SC(=S)N(Cc3ccccc3)C2=O)c1O,32.6 µM (active)
2,CC(=O)Nc1sc(/C(C#N)=C/c2ccc(Cl)c(Cl)c2)nc1-c1ccc(C)cc1,2.04 µM (active)
3,O=C(O)c1ccc(N2C(=O)/C(=C/c3ccc(-c4ccc([N+](=O)[O-])cc4)o3)C=C2c2ccccc2)cc1,9.9 µM (active)
4,CCOC(=O)C1=C(C)N=c2s/c(=C\c3ccc(OCC(=O)O)cc3)c(=O)n2C1c1ccc(Cl)cc1 (centres undefined),13.8 µM (active)
